# Marks after values point to notes of the source that are not given here.
# How the values were obtained:
# [1] = tested on: Sprague Dawley rats; assay: Palatability (no-choice) trial, peanut butter bait; assay type: in vivo, rat (Sprague Dawley); conditions: 1% w/w toxicant in peanut butter bait, n = 6, 3 male and 3 female rats, Table 12
# Description: In the palatability trials, Sprague Dawley rats (ca. 250 g) were presented with 1% w/w compound (n=6) or 0.5% w/w compound (n=5) in a peanut butter bait, following 3 days ‘pre-baiting’ with a peanut butter formulation free of toxicant.
# [2] = tested on: Sprague Dawley rats; assay: Palatability (no-choice) trial, peanut butter bait; assay type: in vivo, rat (Sprague Dawley); conditions: 2% w/w toxicant in peanut butter bait, n = 6, Table 12
# [3] = tested on: Sprague Dawley rats; assay: In vivo lethality, oral gavage; set-up: species or system rat (Sprague Dawley); conditions: rat
# Summary of the method: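 Sprague Dawley rats (150-200 g) received compound dissolved in 0.2 M HCl (5% DMSO overall) at the desired dose, by oral gavage or tail-vein i.v. injection. Animals were watched for early toxicity signs every minute (i.v.) or every 15 min (oral).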
# [4] = tested on: Sprague Dawley rats; assay: Palatability (choice) trial, peanut butter bait; assay type: in vivo, rat (Sprague Dawley); conditions: choice of EPA diet (20 g) and bait with 1% w/w toxicant (20 g), 2 days, n = 2; Table 15
# [5] = tested on: rat caudal artery; assay: Rat caudal artery ring contractile force (vasoconstrictory activity); set-up: species or system rat (male Wistar)
# Summary of the method: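 Endothelium-denuded caudal artery rings from male Wistar rats were held at 2 g resting tension in Tyrode solution (37° C, pH 7.35, 95% O2/CO2) and isometric force was recorded. Compounds were tested at 50 μM, with contraction expressed as percent of the 90 mM KCl response.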
smiles,measurement,setting,value
"CCCCCCCCCCCC(=O)NCCN1C(=O)C2C3C=C(C(O)(c4ccccc4)c4ccccn4)C(C3=C(c3ccccc3)c3ccccn3)C2C1=O (stereo not drawn) [Compound 339, N-2′-Dodecanamidoethyl-5-(α-hydroxy-α-2-pyridylbenzyl)-7-(α-2-pyridylbenzylidene)-5-norbornene-2,3-dicarboximide]",No of deaths,[1],3/6
same,No of deaths,[2],5/6
same,Time to Death (min),"[3]; 20 mg/Kg, mean time",300^e min
same,Onset of Symptoms,"[3]; 20 mg/Kg, mean time, visual signs of distress consistent with NRB-like symptoms",200 min
same,In vivo lethality (oral),"[3]; 40 mg/Kg, n = 2",yes^h
same,No of deaths,[4],3/12
same,Vasoconstriction: maximum contractile effect as a % of 90 mM KCl contraction,"[5]; Table 2, compound at 50 μM",0%
same,Vasoconstriction: maximum contractile effect as a % of 90 mM KCl contraction,"[5]; Table 4, pre-cleavage, n = 3",0%
